Test results reported in patent US11358969B2, “Indole AHR inhibitors and uses thereof” (Ikena Oncology, Inc., priority 2017, dated 2022).

Tests used:
[1] = target: T1, AHR (UniProt P35869); test: DRE-Luciferase Reporter Assay (Alternate Method) (Example 1B); format: cell-based, murine or human; details: cell line and AHR activating ligand not specified
T1 construct: IC50
T1 sequence (P35869 1-848): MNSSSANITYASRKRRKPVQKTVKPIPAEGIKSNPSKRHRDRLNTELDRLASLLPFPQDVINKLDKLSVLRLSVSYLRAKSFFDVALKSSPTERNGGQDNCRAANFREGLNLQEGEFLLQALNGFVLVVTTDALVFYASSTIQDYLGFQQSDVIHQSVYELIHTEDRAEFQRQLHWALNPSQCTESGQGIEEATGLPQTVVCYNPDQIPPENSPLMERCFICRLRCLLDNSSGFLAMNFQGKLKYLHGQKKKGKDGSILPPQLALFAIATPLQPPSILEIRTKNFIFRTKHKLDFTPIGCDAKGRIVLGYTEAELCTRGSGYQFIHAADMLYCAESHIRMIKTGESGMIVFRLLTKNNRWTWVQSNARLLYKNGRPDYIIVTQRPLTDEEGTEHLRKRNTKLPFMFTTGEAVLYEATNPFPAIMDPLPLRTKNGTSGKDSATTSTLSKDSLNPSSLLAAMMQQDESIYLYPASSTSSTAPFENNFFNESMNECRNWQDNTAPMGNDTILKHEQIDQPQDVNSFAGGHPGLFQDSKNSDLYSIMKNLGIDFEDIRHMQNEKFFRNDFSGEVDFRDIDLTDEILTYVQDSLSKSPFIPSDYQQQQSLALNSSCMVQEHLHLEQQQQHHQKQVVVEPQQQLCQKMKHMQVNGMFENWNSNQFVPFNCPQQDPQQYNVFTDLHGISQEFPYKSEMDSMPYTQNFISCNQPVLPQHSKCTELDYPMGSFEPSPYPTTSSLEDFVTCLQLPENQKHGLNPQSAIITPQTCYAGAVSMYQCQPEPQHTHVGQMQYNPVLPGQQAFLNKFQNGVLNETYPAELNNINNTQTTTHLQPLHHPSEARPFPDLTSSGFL

[2] = Mouse Pharmacokinetic Study (Example 1C); format: in vivo; details: plasma, CD-1 mice; for bioavailability / AUC(0-inf) / AUC(0-t) / clearance / half-life / Vd / Cmax / Tmax: mouse; for Vd: read-out: Vdss
Procedure: Formulations of compounds set forth in Table 4 were administered intravenously or orally via gavage to CD-1 mice. Typically, at 0.167, 0.5, 1, 2, 4, 6, 12, and 24 hours post-dose, blood was collected and processed to plasma by centrifugation and stored at −80° C. until analysis.
Internal standard was added to each sample prior to protein precipitation with acetonitrile. The precipitates were filtered through a Phree phospholipid removal filter plate and the samples were analyzed by LC/MS/MS. A standard curve was prepared in plasma from typically from 1.0 ng/mL to 3000 ng/mL and processed in the same manner as the samples. Sample analysis was typically performed on a suitable LC/MS/MS system fitted with an analytical UPLC column and compounds eluted from the analytical column with a gradient from 30-95% 0.1% formic acid (v/v) in ACN: 0.1% formic acid (v/v) in water. Mass spectrometric detection of test compound and the internal standard was performed by MRM in positive mode. The pharmacokinetics of each compound were analyzed by Phoenix WinNonlin software (Pharsight, St. Louis, Mo.) via non-compartmental analysis.

[3] = In Vitro Mouse liver S9 Metabolic Stability Assay (Example 1D); format: in vitro ADME; details: CD-1 mouse liver S9, 1 μM compound, 1 mg/mL S9 protein, 37° C., NADPH regenerating system, UDPGA, PAPS
Procedure: CD-1 mouse liver S9 were purchased from Corning or XenoTech LLC or BioreclamationIVT, LLC or WuXi prepared. The cells were stored at −80° C. in a freezer before use. β-Nicotinamide adenine dinucleotide phosphate (NADP), Glucose 6-phosphate (G6P), Glucose 6-phosphate dehydrogenase from yeast (G6PDH), Uridine 5′-diphophoglucuronic acid trisodium salt (UDPGA) and Adenosine 3′-phosphate 5′-phosphosulfate lithium salt hydrate (PAPS) were available commercially from Sigma.
Compounds were diluted in DMSO to make 10 mM stock solution. 5 μL of this stock solution (10 mM, DMSO) was diluted with 45 μL DMSO and 450 μL 50% Methanol/Water to make intermediate stock solution (100 μM, 45% MeOH, 10% DMSO). 50 μL of intermediate stock solution was diluted with 450 μL 100 mM phosphate buffer to make a final stock solution (10 μM, 4.5% MeOH, 1% DMSO). 10 uL of final stock solution was added to 90 uL liver S9 system (final concentration of 1 μM, 0.45% MeOH, 0.1% DMSO).
Test compounds were incubated at 37° C. with liver S9 (pooled from multiple donors) at 1 μM in the presence of a NADPH regenerating system, UDPGA, and PAPS at 1 mg/mL S9 protein. Time samples (0 and 60 minutes) were removed and immediately mixed with cold acetonitrile containing internal standard (IS). Samples were analyzed by LC/MS/MS and disappearance of test compounds were assessed based on peak area ratios of analyte /IS (no standard curve). All samples were injected and analyzed using LC-MS/MS. The analyte/internal standard peak area ratios were converted to percentage remaining (% Remaining) with the following equation: % Remaining at 60 min=(Peak area ratio of analyte to IS at 60 min/Peak area ratio of analyte to IS at t=0)×100%. Table 5. Mouse Stability Data According to Example 1D.

[4] = po, 15 mg/kg, 3.00 mg/mL in DMSO:solutol:water = 5:10:85, solution

| Structure (SMILES) | IC50 [1] | AUC(0-inf) ([2]; iv, 3 mg/kg) | AUC(0-t) ([2]; iv, 3 mg/kg) | clearance ([2]; iv, 3 mg/kg) | half-life ([2]; iv, 3 mg/kg) | Vd ([2]; iv, 3 mg/kg) | Mouse S9 Stability: % Remaining After 60 Minutes [3] | also measured |
| --- | --- | --- | --- | --- | --- | --- | --- | --- |
| Fc1cncc(-c2cc(OC3CCCC3)nc(NCCc3c[nH]c4ccccc34)n2)c1 [I-59, 4-(Cyclopentoxy)-6-(5-fluoro-3-pyridyl)-N-[2-(1H-indol-3-yl)ethyl]pyrimidin-2-amine] | < 500 nM | 949 ng·h/mL | 925 ng·h/mL | 53 mL/min/kg | 396 min | 11.2 L/kg | 11% | bioavailability ([2]; po, 30 mg/kg): 22%; AUC(0-inf) ([2]; po, 30 mg/kg): 2130 ng·h/mL; AUC(0-t) ([2]; po, 30 mg/kg): 2110 ng·h/mL; Cmax ([2]; po, 30 mg/kg): 719 ng/mL; Tmax ([2]; po, 30 mg/kg): 30 min; half-life ([2]; po, 30 mg/kg): 258 min |
| O=C(c1cnn2c(NCCc3c[nH]c4ccccc34)cc(-c3cncc(F)c3)nc12)N1CCOCC1 [I-65, [5-(5-Fluoro-3-pyridyl)-7-[2-(1H-indol-3-yl)ethylamino]pyrazolo[1,5-a]pyrimidin-3-yl]-morpholino-methanone] | < 500 nM | 537 ng·h/mL | 522 ng·h/mL | 93.1 mL/min/kg | 42 min | 2.7 L/kg | 0% | bioavailability ([2]; po, 30 mg/kg): 7%; AUC(0-inf) ([2]; po, 30 mg/kg): 373 ng·h/mL; AUC(0-t) ([2]; po, 30 mg/kg): 370 ng·h/mL; Cmax ([2]; po, 30 mg/kg): 574 ng/mL; Tmax ([2]; po, 30 mg/kg): 12 min; half-life ([2]; po, 30 mg/kg): 48 min |
| Cc1[nH]c2c(F)cc(F)cc2c1CCNc1cc(-c2cncc(F)c2)nc2c(C(C)C)cnn12 [I-107, N-[2-(5,7-Difluoro-2-methyl-1H-indol-3-yl)ethyl]-5-(5-fluoro-3-pyridyl)-3-isopropyl-pyrazolo[1,5-a]pyrimidin-7-amine] | < 500 nM | 92 ng·h/mL | 88 ng·h/mL | 540 mL/min/kg | 131 min | 43.2 L/kg | 0% | Tlast [2, 4]: 0 h; bioavailability [2, 4]: 0%; Tmax [2, 4]: 0 min |
| Cc1[nH]c2c(F)cccc2c1CCNc1nc(-c2cncc(F)c2)nc2c(C)cnn12 [I-202, N-[2-(7-Fluoro-2-methyl-1H-indol-3-yl)ethyl]-2-(5-fluoro-3-pyridyl)-8-methyl-pyrazolo[1,5-a][1,3,5]triazin-4-amine] | < 500 nM | – | – | – | – | – | 0% | – |
| Fc1cncc(-c2cc(NCCc3c[nH]c4cccnc34)n3nccc3n2)c1 [I-208, 5-(5-Fluoro-3-pyridyl)-N-[2-(1H-pyrrolo[3,2-b]pyridin-3-yl)ethyl]pyrazolo[1,5-a]pyrimidin-7-amine] | > 1500 nM | – | – | – | – | – | 0% | – |
| Cc1cnn2c(NCCc3c[nH]c4cccnc34)cc(-c3cncc(F)c3)nc12 [I-209, 5-(5-Fluoro-3-pyridyl)-3-methyl-N-[2-(1H-pyrrolo[3,2-b]pyridin-3-yl)ethyl]pyrazolo[1,5-a]pyrimidin-7-amine] | 500 to 1000 nM | – | – | – | – | – | 0% | – |
| Cc1[nH]c2c(F)cccc2c1CCNc1cc(-c2cncc(F)c2)nc2ccnn12 [I-214, N-[2-(7-Fluoro-2-methyl-1H-indol-3-yl)ethyl]-5-(5-fluoro-3-pyridyl)pyrazolo[1,5-a]pyrimidin-7-amine] | < 500 nM | – | – | – | – | – | 0% | – |
| Cc1[nH]c2c(F)cccc2c1CCNc1cc(-c2cncc(F)c2)nc2c(C)cnn12 [I-224, N-[2-(7-fluoro-2-methyl-1H-indol-3-yl)ethyl]-5-(5-fluoro-3-pyridyl)-3-methyl-pyrazolo[1,5-a]pyrimidin-7-amine] | < 500 nM | – | – | – | – | – | 0% | – |
| Cc1[nH]c2c(F)cccc2c1CCNc1cc(-c2cncc(F)c2)nc2c(C(F)(F)F)cnn12 [I-235, N-[2-(7-Fluoro-2-methyl-1H-indol-3-yl)ethyl]-5-(5-fluoro-3-pyridyl)-3-(trifluoromethyl)pyrazolo[1,5-a]pyrimidin-7-amine] | < 500 nM | – | – | – | – | – | 2% | – |
